Data reported in patent US20260159561A1 (MyNeuroCure Oy, priority 2017, published 2026).

B1: MANF: mesencephalic astrocyte-derived neurotrophic factor; mature human MANF, SEQ ID NO: 9, 158 amino acids (protein, listed as Homo sapiens)
chain: LRPGDCEVCISYLGRFYQDLKDRDVTFSPATIENELIKFCREARGKENRLCYYIGATDDAATKIINEVSKPLAHHIPVEKICEKLKKKDSQICELKYDKQIDLSTVDLKKLRVKELKKILDDWGETCKGCAEKSDYIRKINELMPKYAPKAASARTDL

Tests used:
[1] = test system: ER stressed superior cervical ganglia (SCG) sympathetic neurons; assay: Survival of tunicamycin ER-stressed SCG neurons microinjected with expression plasmids; assay type: cell-based, mouse; conditions: expressed from microinjected plasmids; tunicamycin 2 μM; counted after three days
Experimental: (§1) Non-neuronal cells were removed by extensive preplating. Almost pure neurons were cultured in polyornithine/laminin (Sigma)-coated 35-mm plastic dishes in the small-size standard microislands in the Neurobasal medium and B27 supplement (Invitrogen/Gibco) in the presence of 30 ng/ml mouse nerve growth factor (NGF) (Promega) for 5-6 days. NGF was deprived by extensive washing and addition of the function-blocking anti-NGF antibodies (Roche). The neurons were pressure-microinjected with special neuronal microinjection equipment (Hellman et al., 2011; Hamner et al., 2001; Lindholm et al., 2002; Sun et al., 2001; Yu et al., 2003)(Sun et al., 2001; Sun et al., 2003). For the survival assay, all neurons on the microislands were counted in the beginning (initial number) and the end (three days) of the experiment and expressed as % of initial.
(§2) Microinjection of the sympathetic neurons was performed as described earlier (Yu, L. Y., Jokitalo, E., Sun, Y. F., Mehlen, P., Lindholm, D., Saarma, M., and Arumäe, U. (2003) J. Cell Biol. 163, 987-997). […] Next day tunicamycin (2 μM) was added, and after 3 days the living fluorescent neurons were counted. Living fluorescent (EGFP-expressing or Dextran Texas Red-containing) neurons were “blindly” counted three days later and expressed as percent of initial living fluorescent neurons counted 2-3 hours after microinjection. […]

[2] = test system: Huntington's disease rat model (quinolinic acid); assay: Quinolinic acid Huntington's disease rat model, rotarod and grip strength; assay type: in vivo; conditions: single intrastriatal injection 2 weeks after QA, equimolar to CDNF 10 micrograms, vs QA+PBS
Source text: Adult Wistar rats received a single, unilateral intrastriatal injection of quinolinic acid (QA) 225 nmol into coordinates: A/P+0.7; L/M+2.8; D/V −6.0. Quinolinic acid is a toxin that induces striatal neuron death by an excitotoxic process. […] Rats were randomized to groups before the treatments started. Rotarod and grip strength tests were done weekly.

[3] = test system: ER stressed SCG neurons; assay: Survival of tunicamycin ER-stressed SCG neurons microinjected with recombinant protein; assay type: cell-based, mouse; conditions: recombinant protein microinjected into the cytoplasm; tunicamycin 2 μM; counted after 3 days
Experimental: as §1, §2

[4] = test system: rats in the 6-OHDA model of Parkinson's disease; conditions: applied before the toxin; cited from earlier work
[5] = test system: E14 dopamine neurons; assay: Internalization of iodinated proteins into dopamine neurons; assay type: cell-based, mouse; conditions: 30,000 cpm iodinated protein, 37° C., 2 hr, acid wash
Experimental: 2 hr. The cells were transferred to ice and washed once with 0.5 ml of the ice cold media. Then cells were transferred to Eppendorf tubes and washed at 4° C. once with 0.2M acetic acid, 0.5M NaCl, pH 2.8.

[6] = test system: rat PC6 cells; assay: Internalization of iodinated proteins into PC6.3 cells; assay type: cell-based; conditions: PC6 cells with or without thapsigargin, 90 min, acid wash
Experimental: Rat PC6.3 pheochromocytoma cells were grown on the 24 well plate in DMEM culture with 10% FCS and 5% horse serum. […] 90 min. The cells were put on ice, washed once with 0.5 ml of the ice cold media. Then cells were transferred to Eppendorf tubes and washed once with 0.2M acetic acid, 0.5M NaCl, pH 2.8. After centrifugation at 1000 g for 10 min cells were dissolved in 0.5 ml of 0.5 N NaOH and counted in Wizard 3 1480 Automatic Gamma Counter (Perkin Elmer, Wallac).

| Molecule | living fluorescent neurons, percentage of initial neurons [1] | rotarod latency to fall (motor behavior) [2] | living fluorescent neurons, percentage of initial neurons [3] | 6-OHDA-induced behavioral and histological symptoms [4] | radioactivity inside the cells (internalization) [5] | radioactivity inside the cells (cell membrane penetration) [6] |
| --- | --- | --- | --- | --- | --- | --- |
| CDNF: cerebral dopamine neurotrophic factor; mature human CDNF, SEQ ID NO: 7, 161 amino acids | rescue ER stressed superior cervical ganglia (SCG) sympathetic neurons | not CDNF improved motor behavior statistically significantly | rescue ER stressed SCG neurons | potently prevent the 6-OHDA-induced behavioral and histological symptoms | – | – |
| ^125I-CDNF: full length CDNF iodinated with 125I-Na using the lactoperoxidase method | – | – | – | – | not ^125I-CDNF is efficiently internalized | not full length iodinated CDNF penetrate cell membrane |
| B1 | – | – | – | potently prevent the 6-OHDA-induced behavioral and histological symptoms | – | – |
